≈ marks a conversion by molar mass, not a printed value. Where “and” joins values, the source holds several entries; their conditions need not be identical. Equal values may be shown once.
Tests used:
HeLa Kyoto cells = assay: Relative viability (HOE/PI) in HCHT screening
Procedure: One advantage of HCHT imaging of cellular uptake compared to flow cytometry[38],[42],[43] is that it simultaneously gives information on toxicity and intracellular localization. […] Information on the intracellular localization of reporters can be quantified through segmentation of cellular compartments stained with specific markers.[52]
(§1) Uptake inhibition was measured by the automated HCHT imaging used already to elaborate on cytosolic delivery. For inhibitor screening, HK cells in multiwell plates were incubated with increasing concentrations of inhibitors, followed by fluorescent transporters 28, 31, and 32 at a constant concentration. […] If inhibitors are removed before the addition of transporters 28, 31, and 32, the method is referred to as “pre-incubation”. This is of interest to minimize exchange between the transporter and the inhibitor but is often problematic because dynamic covalent exchange between the inhibitor and cellular target can also be reversed and thus lost. The complementary “co-incubation” operates without inhibitor removal before the addition of transporters 28, 31, and 32.
Relative cell viability ( RV) for each condition in the presence of inhibitors was calculated […]
of the relative cell viability ( RVrel) to the concentration of inhibitors ( cinhibitor ) was plotted and fitted with Equation (S19) to retrieve the concentration causing 50% cell growth inhibition (RV50) value and the Hill coefficient ( n).

HK cells, transporter 31 = assay: HCHT imaging: inhibition of cytosolic delivery of ETP transporter 31; type: cell-based, Human; details: co-incubation (C), inhibitor 1 h; for IC50 / IC15: Homo sapiens, 1 h; for IC50: read-out: IC50 (concentration needed to reach 50% inhibition), transporter 31 10 μM; for IC15: read-out: MIC (concentration needed to reach 15% inhibition), transporter 31 10 μM; for MIC (concentration needed to reach 15% inhibition): transporter 31 10 μM
Procedure: as §1
(§2) 536/40 nm emission filter, and red with 531/40 nm excitation filter and 593/40 nm emission […]
(§3) 4.3. HCHT Inhibitor Screening
(§4) Pre-Incubation Method. As in ref. S1. HeLa Kyoto cells were seeded at 8 ×10^4 cells/mL in FluoroBrite DMEM + 10% FBS on μ-Plate 96-well Black ibiTreat sterile and incubated at 37 °C with 5% CO 2 for 24 h. Then, the medium was removed and cells were washed with PBS ([…]), fresh FluoroBrite DMEM medium (4 × 150 μL/well) was added into the cells using a plate washer (Biotek EL406®), keeping a final volume of 135 μL/well. Different concentrations of the inhibitors were prepared by serial dilution with 10% final concentration DMSO (10× in PBS). The solution of compounds 4 and 33 was prepared final DMSO concentration of 10% in each dilution (10× in PBS). These inhibitor solutions (10× final concentration), transporter 28 (10× in DMEM), transporters 31 and 32 (10× in PBS) a solution of HOE (100 μg/mL) and PI (10 μg/mL) in PBS were prepared freshly in a 96-well V-bottom plate before adding to the cells. The inhibitor solutions from the V-bottom plate were added to the cells (15 μL/well) in a final volume of 150 μL/well using an electronic multichannel pipette and cells were incubated for 1 h at 37 °C with 5% CO 2. After this incubation, cells were washed again with PBS and DMEM using the plate washer (in the way mentioned above), and transporter 28 , 31 or 32 from the V-bottom plate was added (15 μL/well) to the cells in a final volume of 150 μL/well. A final concentration of each transporter 28 , 31 and 32 was 5 μM, 10 μM and 0.5 μM, respectively, except for the control wells, where only PBS was added (15 μL/well). Cells treated with transporter 28 or 31 were incubated for 30 min, and cells treated with 32 were incubated for 2 h at 37 °C with 5% CO 2. After that, the cells were washed with PBS and DMEM using the plate washer, and the solution of Hoechst 33342 and PI from the V-bottom plate was added (15 μL/well) to the cells in a final volume of 150 μL/well. After 15 min of incubation at 37 °C with 5% CO 2, the cells were washed and kept in clean FluoroBrite
(§5) DMEM. For live cell imaging, samples were kept at 37 °C with 5% CO 2 during the microscope imaging. The distribution of fluorescence stained cells was analyzed without fixing using an […]

[1] = Dynamic covalent ring opening with thiol 10, 1H NMR kinetics; type: physicochemical
Procedure: The dynamic covalent opening of CTO 3 with thiols yields product 9 with a disulfide and a sulfinate (Figure 3B). Consistent with short chalcogen bonds found in silico, the opening of CTO 3 was instantaneous on an NMR timescale with most thiols. To decelerate ring opening, bulky thiols were considered in combination with lowered pH to deactivate the nucleophile. With N-Ac-D-penicillamine 10, the opening of 5 mM CTO 3 in phosphate buffer/DMSO-d6 9:1 was still immediate at pD 6.7 but became detectable in ^1H NMR spectroscopy kinetics under more acidic conditions. The ring-opening rate constants k^O were estimated by fitting the initial velocities to second-order kinetics. Only lower bound rates were approximated from the earliest determined substrate conversions when reactions were still too fast despite the unfavorable conditions. At pD 5.4, dynamic covalent ring opening of CTO 3 with equimolar tertiary thiol 10 occurred with k^O > 0.49 M^–1 s^–1 and equilibrated at K = 6.0 × 10^3 M^–1 (Table 1, entry 1, Figures S4 and S5). At pD 2.7, further deceleration to k^O = 0.10 M^–1 s^–1 shifted the equilibrium to K = 500 M^–1 (Table 1, entry 2, Figures S6 and S7). […] At equilibrium, the concentration of thiol 10 further decreased slowly due to oxidation into the homodimer (Figure 3C, diamonds).
Equilibrium constants for reactions with two reactants A and B and a product C are […]
3.1.1. Dynamic Covalent Ring Opening with Thiols
General procedure A (at 5 mM): To a solution of deuterated sodium phosphate (200 mM in D 2O, pD 2.7 or 5.4, 180 mM final concentration), a stock solution of substrate (0.10 M in DMSO-d6, 5.0 mM final concentration) was added and stirred. Then a stock solution of 10 (0.10 M in DMSO- d6, 5.0 mM final concentration) was added and vigorously stirred at room temperature. The solution was transferred immediately to an NMR tube and NMR data were recorded repeatedly. The concentration of the substrate or thiol at each time plot was calculated by comparing the integrals of the peaks indicated with arrows in the figures, and plotted. The data points were fitted to obtain k1 with the Equation (S6) or (S7) using Graphpad Prism.
General procedure B (at 2 mM): To a solution of deuterated sodium phosphate (200 mM in D 2O, pD 2.7 or 5.4, 180 mM final concentration), DMSO- d6 (10% DMSO- d6 in the reaction mixture) and a stock solution of substrate (0.10 M in DMSO- d6, 2.0 mM final concentration) were added and stirred. Then a stock solution of 10 (0.10 M in DMSO- d6, 2.0 mM final concentration) was added and vigorously stirred at room temperature. The solution was transferred immediately to an NMR tube and NMR data were recorded repeatedly. The concentration of the substrate or thiol at each time plot was calculated by comparing the integrals of the peaks indicated with arrows in the figures, and plotted. The data points were fitted to obtain k1 with the Equation (S6) or (S7) using Graphpad Prism.
General procedure C (for thiosulfinates): To a solution of deuterated sodium phosphate (200 mM in D 2O, pD 5.4, 170 mM final concentration), a stock solution of substrate (0.10 M in DMSO- d6, 5.0 mM final concentration) was added and stirred. Then a stock solution of 10 (0.10 M in DMSO- d6, 10 mM final concentration) was added and vigorously stirred at room […]
data points were fitted to obtain k1 with the Equation (S14) or (S16) using Graphpad Prism. […]
3.1.2. Dependence of Ring Opening on Proticity
A mixture of deuterated phosphoric acid and NaOD (30% in D 2O), which gave pD 2.7 in D2O, was used as buffer in all solvent mixtures. To a solution of deuterated sodium phosphate (20 mM final concentration) in a mixture of D 2O and DMSO- d6 (540 μL, final D 2O content: […]
concentration) was added and stirred. Then a stock solution of 10 (0.10 M in DMSO- d6, 5.0 mM final concentration) was added and vigorously stirred at room temperature. The solution was transferred immediately to an NMR tube and 1H NMR data were recorded repeatedly. […]

in vitro = details: human
HK cells, transporter 28 = assay: HCHT imaging: inhibition of cytosolic delivery of CTO transporter 28; type: cell-based, Human; details: pre-incubation (P), inhibitor 1 h
Procedure: as §1, §2, §3, §4, §5

[2] = with transporter 31, co-incubation (C)

SMILES | RV50 (concentration needed to lower relative viability by 50%) (HeLa Kyoto cells; [2]) | IC50 (HK cells, transporter 31) | IC15 (HK cells, transporter 31) | viability at 7 h, 50 µM (in vitro) | MIC (concentration needed to reach 15% inhibition) (HK cells, transporter 31) | further results
O=S1(=O)C[C@H](O)[C@@H](O)CS1 [Compound 15] | >500 µM | 22 µM | 1.5 µM |  |  | k^O, rate constant of ring opening ([1]; equimolar 10, rt, pD 2.7, 90% D2O/DMSO-d6, Na+ phosphate 180 mM, substrate 5 mM): >0.56 M^–1 s^–1; krel^O, rate constant of ring opening relative to 3 ([1]; pD 2.7, 90% D2O, 5 mM): >5.6; ring opening faster than 3 (fold) ([1]; with thiol 10, pD 2.7): 5 ×
C#CCNC(=O)CC[C@H](NC(=O)COCCNC(=O)O[C@H]1CSS(=O)(=O)C[C@H]1O[Si](C)(C)C(C)(C)C)C(=O)NCCOCCNC(=O)O[C@H]1CSS(=O)(=O)C[C@H]1O[Si](C)(C)C(C)(C)C [Compound 44] |  |  |  |  |  | viability at 7 h, 10 µM (in vitro): 98%; RV50 (concentration needed to lower relative viability by 50%) (HeLa Kyoto cells; with transporter 28, pre-incubation (P)): 4.1 ± 0.3 µM and 4 µM
CCN1C(=O)C2SSC1C(=O)N2CC(=O)NCCNC(=S)Nc1ccc(-c2c3ccc(=O)cc-3oc3cc(O)ccc23)c(C(=O)O)c1 (stereo not shown) [Compound 31, reference compound] |  |  |  |  |  | toxicity of transporters (in words) (HeLa Kyoto cells; conditions of HCHT screening (28 5 μM, 31 10 μM, 32 0.5 μM)): not toxic
CC(C)(C)[Si](C)(C)O[C@@H]1CS(=O)(=O)SC[C@@H]1O [Compound 6] |  | 5 ± 1 µM | < 1 µM |  |  | viability at 7 h, 5 µM (in vitro): 105 ± 7%
CSS(C)(=O)=O [Compound 14, reference compound] |  |  |  |  |  | k^O, rate constant of ring opening (or equivalent for acyclic controls) ([1]; equimolar 10, rt, pD 2.7, 90% D2O, Na+ phosphate 180 mM, substrate 2 mM): 0.52 M^–1 s^–1; krel^O, rate constant of ring opening relative to 3 ([1]; pD 2.7, 90% D2O, 2 mM): 5.2
O=S(O)CC(O)C(O)CSSCC(O)C(O)CS(=O)O (stereo not shown) [Compound 37] | >50 µM | 60 ± 20 µM | 6.8 µM | 97% | 7 µM | 
O=S(O)CC(O)C(O)CSSCCSSCC(O)C(O)CS(=O)O (stereo not shown) [Compound 40] | >50 µM | 50 µM | 7.8 µM | 96% | 8 µM | 
CC(C)(C)[Si](C)(C)O[C@@H]1CS(=O)(=O)SC[C@@H]1OC(=O)NCC[N+](C)(C)C [Compound 38] |  | 47 µM | 23 µM | 37% |  | 
O=C(O)c1cc(SSc2ccc([N+](=O)[O-])c(C(=O)O)c2)ccc1[N+](=O)[O-] [Compound 16, 5,5’-Dithiobis(2-nitrobenzoic acid), reference compound] |  |  |  |  |  | viability at 7 h, 5 µM (in vitro): 89%; k^O, rate constant of ring opening (or equivalent for acyclic controls) ([1]; equimolar 10, rt, pD 5.4, 90% D2O/DMSO-d6, Na+ phosphate 180 mM, substrate 5 mM): 0.11 M^–1 s^–1; krel^O, rate constant of ring opening relative to 3 ([1]; pD 5.4, 90% D2O, 5 mM): <0.22; ring opening/exchange slower than CTO 3 (fold) ([1]; with thiol 10, pD 5.4): > 5 ×
NCCNC(=O)O[C@H]1CSS(=O)(=O)C[C@H]1O [Compound 39] | >50 µM | > 50 µM | 14 µM | 86% |  | 
CCCNC(=O)O[C@H]1CSS(=O)(=O)C[C@H]1O[Si](C)(C)C(C)(C)C [Compound 43] |  |  |  |  |  | viability at 7 h, 10 µM (in vitro): 87%; IC15 (HK cells, transporter 28; Homo sapiens, 1 h, read-out: MIC (concentration needed to reach 15% inhibition), transporter 28 5 μM): 4.1 µM; IC50 (HK cells, transporter 28; Homo sapiens, read-out: IC50 (concentration needed to reach 50% inhibition), transporter 28 5 μM): > 50 µM; MIC (concentration needed to reach 15% inhibition) (HK cells, transporter 28; transporter 28 5 μM): 4 µM (≈ 1.53 µg/mL)
CC(=O)O[C@H]1CSS(=O)(=O)C[C@H]1O [Compound 36] | >50 µM | 27 µM | 2.1 µM | 97% | 2 µM | 
O=c1c2ccccc2[se]n1-c1ccccc1 [Compound 46, Ebselen, reference compound] | >100 µM | 49 µM | < 2 µM | 40% | <2 µM | 

From paper PMC9088311, “Cyclic Thiosulfonates for Thiol-Mediated Uptake: Cascade Exchangers, Transporters, Inhibitors” (JACS Au, 2022)
